This passage reports IC50 results from ChEMBL document CHEMBL3751785, “Development and structural analysis of adenosine site binding tankyrase inhibitors” (Bioorg Med Chem Lett, 2016).

The IC50 is the concentration needed to halve the response being measured. High values mean weaker potency in that assay, low ones greater potency in that assay.

Test [1] has as its target T1, Poly [ADP-ribose] polymerase tankyrase-1 (Homo sapiens, UniProt O95271).
T1 sequence (O95271 whole entry): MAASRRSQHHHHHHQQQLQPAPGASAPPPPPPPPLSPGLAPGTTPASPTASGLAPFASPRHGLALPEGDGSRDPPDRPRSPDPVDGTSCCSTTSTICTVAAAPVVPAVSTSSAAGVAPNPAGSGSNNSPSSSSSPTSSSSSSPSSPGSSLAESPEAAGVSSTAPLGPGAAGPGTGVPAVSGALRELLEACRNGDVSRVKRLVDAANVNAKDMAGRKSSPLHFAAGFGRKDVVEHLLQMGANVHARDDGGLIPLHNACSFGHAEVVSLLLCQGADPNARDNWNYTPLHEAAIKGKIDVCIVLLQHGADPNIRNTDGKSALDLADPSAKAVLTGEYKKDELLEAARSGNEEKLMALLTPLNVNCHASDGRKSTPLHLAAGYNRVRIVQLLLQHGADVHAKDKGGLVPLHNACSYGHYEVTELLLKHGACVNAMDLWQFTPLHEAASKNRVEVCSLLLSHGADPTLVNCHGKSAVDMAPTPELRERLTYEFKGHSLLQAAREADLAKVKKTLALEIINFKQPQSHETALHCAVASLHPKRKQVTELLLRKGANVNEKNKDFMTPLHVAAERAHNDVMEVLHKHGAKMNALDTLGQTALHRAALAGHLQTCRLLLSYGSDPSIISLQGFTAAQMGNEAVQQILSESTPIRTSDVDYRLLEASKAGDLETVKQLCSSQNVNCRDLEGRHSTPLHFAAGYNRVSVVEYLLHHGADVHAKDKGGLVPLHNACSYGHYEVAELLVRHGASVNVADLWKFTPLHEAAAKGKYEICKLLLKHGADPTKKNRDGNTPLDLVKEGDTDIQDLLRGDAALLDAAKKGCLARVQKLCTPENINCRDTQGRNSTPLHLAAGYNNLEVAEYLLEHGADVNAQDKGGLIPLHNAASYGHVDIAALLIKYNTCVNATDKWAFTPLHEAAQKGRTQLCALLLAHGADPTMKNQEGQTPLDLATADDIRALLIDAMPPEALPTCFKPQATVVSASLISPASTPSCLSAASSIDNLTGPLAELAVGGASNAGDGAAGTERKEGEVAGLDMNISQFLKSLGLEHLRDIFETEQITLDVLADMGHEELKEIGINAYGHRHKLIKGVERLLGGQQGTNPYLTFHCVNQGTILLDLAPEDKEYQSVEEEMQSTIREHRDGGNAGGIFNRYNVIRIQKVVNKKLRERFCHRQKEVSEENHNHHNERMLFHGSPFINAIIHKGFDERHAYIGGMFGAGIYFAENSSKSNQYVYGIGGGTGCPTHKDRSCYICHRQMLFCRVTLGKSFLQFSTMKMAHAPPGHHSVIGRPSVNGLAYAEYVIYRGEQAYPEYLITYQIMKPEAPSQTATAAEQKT
Description: Inhibition of human TNKS1 by fluorescence analysis.

Test [2] addresses T2, Protein mono-ADP-ribosyltransferase PARP10 (Homo sapiens, UniProt Q53GL7).
T2 sequence (Q53GL7 whole entry): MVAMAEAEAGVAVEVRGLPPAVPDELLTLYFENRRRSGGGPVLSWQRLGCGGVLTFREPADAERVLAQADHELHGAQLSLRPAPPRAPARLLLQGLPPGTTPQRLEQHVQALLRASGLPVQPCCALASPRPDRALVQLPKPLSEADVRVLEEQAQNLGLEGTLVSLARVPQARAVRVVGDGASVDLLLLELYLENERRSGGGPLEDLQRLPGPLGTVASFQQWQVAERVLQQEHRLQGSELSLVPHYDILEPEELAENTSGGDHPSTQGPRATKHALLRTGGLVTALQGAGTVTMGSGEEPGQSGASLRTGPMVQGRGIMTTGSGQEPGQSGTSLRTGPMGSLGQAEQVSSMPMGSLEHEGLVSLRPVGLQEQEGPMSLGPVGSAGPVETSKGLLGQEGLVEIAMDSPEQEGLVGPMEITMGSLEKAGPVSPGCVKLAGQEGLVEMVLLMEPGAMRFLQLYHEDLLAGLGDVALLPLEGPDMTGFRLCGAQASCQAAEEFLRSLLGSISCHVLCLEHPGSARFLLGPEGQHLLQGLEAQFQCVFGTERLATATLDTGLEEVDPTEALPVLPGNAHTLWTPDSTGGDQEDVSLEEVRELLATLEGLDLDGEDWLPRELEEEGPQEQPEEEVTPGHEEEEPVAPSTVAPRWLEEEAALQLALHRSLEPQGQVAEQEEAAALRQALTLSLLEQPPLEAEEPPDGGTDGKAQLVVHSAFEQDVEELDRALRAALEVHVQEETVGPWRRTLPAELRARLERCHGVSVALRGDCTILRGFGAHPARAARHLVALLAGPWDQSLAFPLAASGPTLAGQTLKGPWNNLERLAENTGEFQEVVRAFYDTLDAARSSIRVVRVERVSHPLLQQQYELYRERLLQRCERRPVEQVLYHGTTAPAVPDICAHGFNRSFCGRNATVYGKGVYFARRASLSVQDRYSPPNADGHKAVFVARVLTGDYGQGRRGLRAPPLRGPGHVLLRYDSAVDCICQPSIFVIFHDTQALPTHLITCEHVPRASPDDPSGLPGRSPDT
Description: Inhibition of human ARTD10 by fluorescence analysis.

The target of test [3] is T3, Protein mono-ADP-ribosyltransferase PARP12 (Homo sapiens, UniProt Q9H0J9).
T3 sequence (Q9H0J9 whole entry): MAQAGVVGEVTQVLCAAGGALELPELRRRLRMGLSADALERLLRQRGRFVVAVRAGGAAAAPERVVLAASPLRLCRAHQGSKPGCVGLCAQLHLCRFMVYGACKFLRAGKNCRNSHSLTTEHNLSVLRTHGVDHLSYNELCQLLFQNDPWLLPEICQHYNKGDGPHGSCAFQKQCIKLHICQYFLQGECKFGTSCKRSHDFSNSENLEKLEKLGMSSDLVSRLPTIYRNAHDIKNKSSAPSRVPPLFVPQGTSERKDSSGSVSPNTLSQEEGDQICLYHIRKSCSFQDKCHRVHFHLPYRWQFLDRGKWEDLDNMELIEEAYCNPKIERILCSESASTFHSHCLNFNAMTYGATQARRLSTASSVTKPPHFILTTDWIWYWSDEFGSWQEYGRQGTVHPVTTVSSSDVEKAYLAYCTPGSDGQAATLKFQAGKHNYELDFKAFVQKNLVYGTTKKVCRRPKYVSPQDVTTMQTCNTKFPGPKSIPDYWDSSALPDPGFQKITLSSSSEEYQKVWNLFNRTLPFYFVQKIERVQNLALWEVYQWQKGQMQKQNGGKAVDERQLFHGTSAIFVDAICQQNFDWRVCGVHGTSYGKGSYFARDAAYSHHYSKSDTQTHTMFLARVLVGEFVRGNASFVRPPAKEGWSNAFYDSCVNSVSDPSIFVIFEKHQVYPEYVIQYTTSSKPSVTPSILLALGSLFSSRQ
The test is described as follows: Inhibition of human ARTD12 by fluorescence analysis.

Where only a bound is given, the exact number is not on record here.

As for `COc1ccc(C2(CNC(=O)c3ccc(NC(=O)c4ccco4)cc3Cl)CCOCC2)cc1`, the IC50 was 0.57 µM in test [1], > 10 µM in test [2] and > 10 µM in test [3].
